From article PMC12312563, “Structures of Listeria monocytogenes MenD in ThDP-bound and in-crystallo captured intermediate I-bound forms” (Acta Crystallographica Section F: Structural Biology …, 2025) come the findings set out here.

In general, inhibition refers to the relative decrease from the control value, in per cent. Low values mean a weak effect, high ones a strong effect. In general, stoichiometry N refers to the number of molecules, sites or subunits per partner or assembly.

The target in data set [1] is T1, LmoMenD (2-succinyl-5-enolpyruvyl-6-hydroxy-3-cyclohexene-1-carboxylate synthase, SEPHCHC synthase) (Listeria monocytogenes, UniProt A0A0H3GD77).
T1 sequence (A0A0H3GD77 1-580): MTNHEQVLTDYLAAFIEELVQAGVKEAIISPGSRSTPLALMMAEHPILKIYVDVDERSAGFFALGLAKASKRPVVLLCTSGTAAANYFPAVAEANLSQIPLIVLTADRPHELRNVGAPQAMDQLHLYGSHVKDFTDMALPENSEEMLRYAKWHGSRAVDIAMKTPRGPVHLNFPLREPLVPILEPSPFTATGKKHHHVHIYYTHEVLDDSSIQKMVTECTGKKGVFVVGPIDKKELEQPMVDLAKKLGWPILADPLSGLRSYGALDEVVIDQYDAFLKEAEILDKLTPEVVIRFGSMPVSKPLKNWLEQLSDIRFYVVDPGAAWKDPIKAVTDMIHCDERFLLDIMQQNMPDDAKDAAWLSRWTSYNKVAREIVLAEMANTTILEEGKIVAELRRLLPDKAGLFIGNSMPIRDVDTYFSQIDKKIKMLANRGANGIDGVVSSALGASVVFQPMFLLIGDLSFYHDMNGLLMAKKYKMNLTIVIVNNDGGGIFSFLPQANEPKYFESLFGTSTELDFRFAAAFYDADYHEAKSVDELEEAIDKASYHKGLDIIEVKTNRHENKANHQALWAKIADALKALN
Details: gene menD.

The target of data set [2] is T1, LmoMenD (2-succinyl-5-enolpyruvyl-6-hydroxy-3-cyclohexene-1-carboxylate synthase, SEPHCHC synthase). Briefly: UV/Vis assay of isochorismate consumption; […] decrease of activity at […]. Type of data set: biochemical. Details: gene menD; full-length LmoMenD, strain 10403s, tag removed by TEV cleavage.
Data set [3] concerns the molecule itself. Kind of data set: crystal structure; LmoMenD with ThDP and Mg2+ (PDB 9e9b) or with intermediate I after a 2-oxoglutarate soak (PDB 9mnn); space group P6(4)22, one molecule in the asymmetric unit, tetramer by crystallographic symmetry; PISA analysis of assemblies.

Regarding `O=C(O)CCC(=O)C(=O)O` [2-oxoglutarate], the “UV/Vis enzyme kinetics (Km, value in supplement); turned over in crystallo to in” value in data set [1] is “the Km values for ThDP, 2-oxoglutarate and isochorismate and kcat were determined”.

In data set [2], `O=C(O)c1cc(O)c2ccccc2c1O` [DHNA, 1,4-dihydroxy-2-naphthoic acid] had an inhibition at 12.5 µM of 34%.

B1: Listeria monocytogenes MenD (2-succinyl-5-enolpyruvyl-6-hydroxy-3-cyclohexene-1-carboxylate (SEPHCHC) synthase) (enzyme, Listeria monocytogenes (strain 10403s))
chain: GAMVTNHEQVLTDYLAAFIEELVQAGVKEAIISPGSRSTPLALMMAEHPILKIYVDVDERSAGFFALGLAKASKRPVVLLCTSGTAAANYFPAVAEANLSQIPLIVLTADRPHELRNVGAPQAMDQLHLYGSHVKDFTDMALPENSEEMLRYAKWHGSRAVDIAMKTPRGPVHLNFPLREPLVPILEPSPFTATGKKHHHVHIYYTHEVLDDSSIQKMVTECTGKKGVFVVGPIDKKELEQPMVDLAKKLGWPILADPLSGLRSYGALDEVVIDQYDAFLKEAEILDKLTPEVVIRFGSMPVSKPLKNWLEQLSDIRFYVVDPGAAWKDPIKAVTDMIHCDERFLLDIMQQNMPDDAKDAAWLSRWTSYNKVAREIVLAEMANTTILEEGKIVAELRRLLPDKAGLFIGNSMPIRDVDTYFSQIDKKIKMLANRGANGIDGVVSSALGASVVFQPMFLLIGDLSFYHDMNGLLMAKKYKMNLTIVIVNNDGGGIFSFLPQANEPKYFESLFGTSTELDFRFAAAFYDADYHEAKSVDELEEAIDKASYHKGLDIIEVKTNRHENKANHQALWAKIADALKALN
notes: MenD, Listeria monocytogenes strain 10403s, menD gene cloned from genomic DNA with printed primers that run from the start to the stop codon; Untagged protein after rTEV cleavage; The forward primer reads ATG GTG ACA..., so the MV at the start may hold one residue more than the natural protein (surmised from the residue numbering); also called LmoMenD; source: E. coli BL21 (DE3), purified …
As for B1, in data set [3], the “stoichiometry N” value came out at 4.
